The source of these data is patent US20180140578A1, “METHODS AND COMPOSITIONS FOR THE DIAGNOSIS AND SELECTIVE TREATMENT OF CANCER” (Board of Regents of the University of Texas System, priority 2016, published 2018).

The subject of assay [1] is pre-mRNA splicing in HCT-116 cells harboring RBM39 G268V. The assay can be described thus: RNA-seq analysis of splicing changes, RBM39 G268V. It counts as cell-based, human. The note with it: 2 μM indisulam. An excerpt: RNAs were extracted using Quick-RNA MiniPrep kit (Zymo Research). After cleaning up genomic DNA contaminant with Turbo DNase (Life Technologies) and rRNA depletion, strand-specific cDNA libraries were generated using the TruSeq Stranded mRNA Sample Prep Kit (IIlumina) and were subjected to high throughput sequencing using
HiSeq2500 platform (Illumina) with 100-bp single-end reads. NGS QC Toolkit (v2.3.1) (49) was used to check the sequencing quality, and high-quality reads were aligned by TopHat (v2.0.8) (50) to human reference genome (hg19) along with the gene annotation data downloaded from Illumina's iGenomes (support.illumina.com/sequencing/sequencing_software/igenome.ilmn). The insert-size metrics required in TopHat execution and the correctness of strand specificity were estimated by mapping reads to human transcript sequences using Bowtie (v2.1.0) (51) and Picard-tools (v1.99) (picard.sourceforge.net). The htseq-count script distributed with the HTSeq Python package (0.6.1) (pypi.python.org/pypi/HTSeq) was employed for counting reads in genes considering the coding strands. Source data for RNA sequencing data is available under NCBI SRA accession SRP096666.
For the stringent detection of differential skipped exons and retained introns, a custom program called SpliceFisher was developed and it is downloadable at github.com/jiwoongbio/SpliceFisher. […]

In the next assay the target is T1, RBM39-3xFLAG complex (Homo sapiens, UniProt Q14498+Q66K64).
T1 construct: endogenous in cells; host or cells: H1155 RBM39-3xFLAG knock-in cells
The assay can be described thus: Immunoprecipitation of RBM39 complex +/− indisulam, LC-MS/MS (Table 1). The note with it: H1155 RBM39-3xFLAG cells; 10 μM indisulam 2 hours. The protocol: Anti-Flag M2 antibody (Sigma-Aldrich) was coupled to Dynabeads M-270 epoxy beads (Life Technologies) at the ratio of 10 μg of antibody/mg beads. […] Frozen cells were then pulverized in the a cryomill (Retsch) with one 25 mm steel ball and five cycles of three min at 25 Hz with intermittent cooling in liquid nitrogen. […] The lysates were centrifuged at 8000 g for 5 min at 4° C. 12 mg of conjugated Anti-Flag magnetic beads were mixed with clarified lysates for 5 min at 4° C. on a rotating platform, followed by three washes with IP buffer. Bound proteins were eluted with 1 mg/ml 3xFLAG peptide, followed by SDS-PAGE on a 10% Bis Tris gel. After brief electrophoresis, bands containing all the proteins were cut with clean blades. For western blotting of co-immunoprecipitated proteins, anti-DDA1 (ProteinTech, 14995-1-AP, 1:1000), anti-DDB1 (Abcam, ab109027, 1;10000), anti-CUL4A (Cell Signaling, 2699, 1:1000), anti-CUL4B (ProteinTech, 12916-1-AP, 1:1000) were used.
Excised gel bands were cut into approximately 1 mm^3 pieces. Gel pieces were then subjected to a modified in-gel trypsin digestion procedure (46). Gel pieces were washed and dehydrated with acetonitrile for 10 min. followed by removal of acetonitrile. Pieces were then completely dried in a speed-vac. […] Peptides were detected, isolated, and fragmented to produce a tandem mass spectrum of specific fragment ions for each peptide. […]

The structures appear in SMILES notation.

For `NS(=O)(=O)c1ccc(S(=O)(=O)Nc2cccc3c(Cl)c[nH]c23)cc1` [Indisulam, indisulam], the exon skipping events in assay [1] (HCT-116 RBM39 G268V) came to 3. For the same compound, the intron retention events result in assay [1] (cells expressing the RBM39 G268V allele) is “no intron retention event”. Further, the “recruitment of RBM39 to CUL4, DDB1, DDA1, DCAF15 CRL complex (shotgun mass spectrometry)” value at RBM39-3xFLAG complex is recorded as “induces recruitment of RBM39”.
